Data as given in patent US20100173918A1, “METHODS AND COMPOSITIONS FOR DETERMINING THE EFFICACY OF BREAST CANCER THERAPEUTICS” (TARGETED MOLECULAR DIAGNOSTICS, LLC, priority 2007, published 2010).
Values joined by “and” are separate entries in the source; they are usually repeats but may differ in a detail not shown here. Identical values can stand only once.

Tests used:
[1] = test system: patients with IBC (inflammatory breast cancer); test: EGF103009 open-label study of lapatinib monotherapy: clinical response (skin criteria / RECIST) and progression-free survival; type: in vivo, human; design: key to RECIST Response: CR: complete response; PR: partial response; SD: stable disease; conditions: for RECIST Response / Skin Response: individual patient, lapatinib 1,500 mg once daily
Description: Patients: Eligible adults (18 years of age) had histologically confirmed IBC (Inflammatory breast cancer) and a clinical diagnosis of IBC (e.g., presence of diffuse erythema and edema [peau d'orange], with or without an underlying palpable mass, involving the majority of the skin of the breast). Pathologic evidence of dermal lymphatic invasion was not required. […] EGF103009 was approved by the institutional review board from each participating institution, and written informed consent was obtained from all patients.
Tumor biomarkers were analyzed in a blinded manner at a central Clinical Laboratory Improvement Amendments—certified College of American Pathology reference laboratory (Targeted Molecular Diagnostics, Westmont, Ill.) (Spector N. L., et al., J Clin Oncol 23:2502-2512 (2005)). […] The study design consisted of two stages; two responses were required in the first fifteen patients in either cohort before an additional fifteen patients were enrolled in that cohort (Green-Dahlberg design).
Patients underwent regular physical examinations and evaluations of performance status, body weight, CBC, serum chemistry, left ventricular ejection fraction by multiple gated acquisition scan or echocardiogram, and if applicable, digital photography to evaluate changes in chest wall/[…] disease or assessment by imaging studies, computed tomography scan or magnetic resonance imaging.
Efficacy and Safety Evaluation: Clinical response was assessed at 4-week intervals and imaging performed at 8-week intervals until disease progression or withdrawal from study. […] Toxicity was graded according to the National Cancer Institute Common Terminology Criteria (NC1-CTCAE), version 3.0.
Statistical Analysis: The statistical focus of the study was to test the null hypothesis that the overall response rate (ORR) is no more than 15% versus the alternative hypothesis that this rate is at least 40%. Each cohort consisted of two stages, such that if there were fewer than two responses at the end of stage 1 (15 patients), then the cohort would be closed in favor of the null hypothesis. […] Kaplan-Meier estimates of progression-free survival ([…]) were computed separately for cohort A and B. For this exploratory analysis, there were no statistical comparisons made between cohorts.

[2] = EGF103009 study of lapatinib monotherapy: safety / adverse events; type: in vivo, human
[3] = Cohort A (HER-2 overexpressing IBC)
[4] = Cohort B (EGFR expression without HER-2 overexpression)
[5] = N = 45, >20% decrease in LVEF, asymptomatic and/or below lower limit of normal
[6] = N = 45, mostly musculoskeletal pain (76% of cases)
[7] = N = 45, one report of rash was not graded

CS(=O)(=O)CCNCc1ccc(-c2ccc3ncnc(Nc4ccc(OCc5cccc(F)c5)c(Cl)c4)c3c2)o1 [lapatinib, Lapatinib ditosylate]
time by which all responses in the skin occurred (first assessment) ([1]; cohort A): ≤ 4 week | patients with response to lapatinib among those who received prior trastuzumab therapy ([1]; cohort A, 15 patients with prior trastuzumab): six | patients who experienced response ([1]; cohort A, HER-2+ IBC, n = 30): 15 of 30 | patients whose best clinical response was a CR in chest wall/skin or RECIST-measurable lesions ([1]; cohort A, n = 30): 7% | patients with a PR in chest wall/skin and/or RECIST-measurable lesions as best response ([1]; cohort A, n = 30): 43% | patients who responded ([1]; cohort A, tumors coexpressing pHER-2 and pHER-3): nine of 10 | patients who responded ([1]; cohort A, tumors not coexpressing pHER-2 and pHER-3): four of 14 | median PFS ([1]; cohort A, median follow-up 15.3 weeks): 14 weeks | patients with a clinical response (PR in skin/chest disease) ([1]; cohort B, n = 15): one of 15 | median PFS ([1]; cohort B, median follow-up 4.1 weeks): 4 weeks | RECIST Response [1, 3]: PR* (4×) and PR (3×) and SD (7×) | Skin Response [1, 3]: PR (more than 50% decrease in extent of skin disease from baseline documented by digital photography) | RECIST Response [1, 4]: SD | Skin Response [1, 4]: PR (more than 50% decrease in extent of skin disease from baseline documented by digital photography) | Anemia, Grade > 3 % ([2]; N = 45): 4% | Anemia, Grade > 3 No. ([2]; N = 45): 2 | Anemia, Total % ([2]; N = 45): 7% | Anemia, Total No. of Patients ([2]; N = 45): 3 | Anorexia, Grade > 3 % ([2]; N = 45): 2% | Anorexia, Grade > 3 No. ([2]; N = 45): 1 | Anorexia, Total % ([2]; N = 45): 22% | Anorexia, Total No. of Patients ([2]; N = 45): 10 | Constipation, Grade > 3 % ([2]; N = 45): 0% | Constipation, Grade > 3 No. ([2]; N = 45): 0 | Constipation, Total % ([2]; N = 45): 7% | Constipation, Total No. of Patients ([2]; N = 45): 3 | Decreased LVEF, Grade > 3 % ([2]; N = 45): 0% | Decreased LVEF, Grade > 3 No. ([2]; N = 45): 0 | Diarrhea, Grade > 3 % ([2]; N = 45): 11% | Diarrhea, Grade > 3 No. ([2]; N = 45): 5 | Diarrhea, Total % ([2]; N = 45): 60% | Diarrhea, Total No. of Patients ([2]; N = 45): 27 | Dyspnea, Grade > 3 % ([2]; N = 45): 11% | Dyspnea, Grade > 3 No. ([2]; N = 45): 5 | Dyspnea, Total % ([2]; N = 45): 20% | Dyspnea, Total No. of Patients ([2]; N = 45): 9 | Edema, Grade > 3 % ([2]; N = 45): 2% | Edema, Grade > 3 No. ([2]; N = 45): 1 | Edema, Total % ([2]; N = 45): 13% | Edema, Total No. of Patients ([2]; N = 45): 6 | Elevated ALT/AST, Grade > 3 % ([2]; N = 45): 4% | Elevated ALT/AST, Grade > 3 No. ([2]; N = 45): 2 | Elevated ALT/AST, Total % ([2]; N = 45): 7% | Elevated ALT/AST, Total No. of Patients ([2]; N = 45): 3 | Elevated alkaline phosphatase, Grade > 3 % ([2]; N = 45): 0% | Elevated alkaline phosphatase, Grade > 3 No. ([2]; N = 45): 0 | Elevated alkaline phosphatase, Total % ([2]; N = 45): 9% | Elevated alkaline phosphatase, Total No. of Patients ([2]; N = 45): 4 | Fatigue, Grade > 3 % ([2]; N = 45): 0% | Fatigue, Grade > 3 No. ([2]; N = 45): 0 | Fatigue, Total % ([2]; N = 45): 24% | Fatigue, Total No. of Patients ([2]; N = 45): 11 | Hyperbilirubinemia, Grade > 3 % ([2]; N = 45): 2% | Hyperbilirubinemia, Grade > 3 No. ([2]; N = 45): 1 | Hyperbilirubinemia, Total % ([2]; N = 45): 9% | Hyperbilirubinemia, Total No. of Patients ([2]; N = 45): 4 | Infection, Grade > 3 % ([2]; N = 45): 4% | Infection, Grade > 3 No. ([2]; N = 45): 2 | Infection, Total % ([2]; N = 45): 13% | Infection, Total No. of Patients ([2]; N = 45): 6 | Nausea, Grade > 3 % ([2]; N = 45): 0% | Nausea, Grade > 3 No. ([2]; N = 45): 0 | Nausea, Total % ([2]; N = 45): 24% | Nausea, Total No. of Patients ([2]; N = 45): 11 | Pain, Grade > 3 % ([2]; N = 45): 16% | Pain, Grade > 3 No. ([2]; N = 45): 7 | Pleural effusion, Grade > 3 % ([2]; N = 45): 9% | Pleural effusion, Grade > 3 No. ([2]; N = 45): 4 | Pleural effusion, Total % ([2]; N = 45): 11% | Pleural effusion, Total No. of Patients ([2]; N = 45): 5 | Pruritus, Grade > 3 % ([2]; N = 45): 0% | Pruritus, Grade > 3 No. ([2]; N = 45): 0 | Pruritus, Total % ([2]; N = 45): 11% | Pruritus, Total No. of Patients ([2]; N = 45): 5 | Rash, Grade > 3 % ([2]; N = 45): 0% | Rash, Grade > 3 No. ([2]; N = 45): 0 | Vomiting, Grade > 3 % ([2]; N = 45): 0% | Vomiting, Grade > 3 No. ([2]; N = 45): 0 | Vomiting, Total % ([2]; N = 45): 20% | Vomiting, Total No. of Patients ([2]; N = 45): 9 | grade ½ diarrhea ([2]; N = 45): 49% | grade ½ musculoskeletal pain ([2]; N = 45): 42% | grade ½ skin rash ([2]; N = 45): 36% | Decreased LVEF, Total % [2, 5]: 7% | Decreased LVEF, Total No. of Patients [2, 5]: 3 | Pain, Total % [2, 6]: 58% | Pain, Total No. of Patients [2, 6]: 26 | Rash, Total % [2, 7]: 36% | Rash, Total No. of Patients [2, 7]: 16 | tolerability of lapatinib monotherapy ([2]; both cohorts): generally well tolerated
